Earlier results in PubChem BioAssay AID1259410 (Chemical Carcinogenesis Research Information System (CCRIS), 2018).

Test system: rodent tumor promotion studies, tumor incidence
Experiment: CCRIS tumor promotion studies
Details: Route [Promoter]: DERMAL, Species: MOUSE

Q: For `CCCCCCCCCCCCCC(=O)O[C@@H]1[C@@H](C)[C@@]2(O)[C@@H](C=C(CO)C[C@]3(O)C(=O)C(C)=C[C@@H]23)[C@@H]2C(C)(C)[C@]12OC(C)=O`, which outcome (Carcinogen: BENZO[B]FLUORANTHENE, 205-99-2, Doses [Carcinogen]: 0, 0.04, 0.12, 0.4 UMOL (TOTAL DOSE) APPLIED IN SUBDOSES 1/2 D FOR 5 WK, Doses [Carcinogen]: 0, 0.04, 0.12, 0.4 UMOL (TOTAL DOSE) APPLIED IN SUBDOSES 1/2 D FOR 5 WK, Doses [Promoter]: 2.5 UG IN 100 µL ACETONE 3/WK FOR 20 WK BEGINNING 10 D POST LAST CARCINOGEN DOSE (STUDY DURATION: 26 WK), Route [Carcinogen]: DERMAL, Strain/Sex: CD-1/FEMALE) is on record?
A: skin: tumor

Q: And the outcome (Carcinogen: BENZO[B]FLUORANTHENE, 205-99-2, Doses [Carcinogen]: 40, 120, 400 NMOL (TOTAL DOSE) APPLIED 1/2 D FOR 10 SUBDOSES, Doses [Carcinogen]: 40, 120, 400 NMOL (TOTAL DOSE) APPLIED 1/2 D FOR 10 SUBDOSES, Doses [Promoter]: 0, 2.5 UG IN 100 µL ACETONE 3/WK FOR 20 WK BEGINNING 10 D POST CARCINOGEN TREATMENT (STUDY DURATION: 22 WK), Route [Carcinogen]: DERMAL, Strain/Sex: CRL:CD-1/FEMALE)?
A: skin: tumor

Q: What about the outcome (Carcinogen: BENZO[B]FLUORANTHRENE, 205-99-2, Doses [Carcinogen]: 40, 100 NMOL TOTAL DOSES GIVEN IN 10 SUBDOSES 1/2 D IN 0.1 ML ACETONE, Doses [Promoter]: 2.5 UG IN 0.1 ML ACETONE 3/WK FOR 30 WK BEGINNING 10 D POST CARCINOGEN TREATMENT (STUDY DURATION: 34 WK), Route [Carcinogen]: DERMAL, Strain/Sex: CD-1/FEMALE) of the same molecule?
A: skin: tumors

Q: What about the outcome (Carcinogen: BENZO[J]FLUORANTHENE, 205-82-3, Doses [Carcinogen]: 0, 1, 3 UMOL (TOTAL DOSE) IN ACETONE SOLUTION 1/2 D FOR 10 DOSES, Doses [Carcinogen]: 0, 1, 3 UMOL (TOTAL DOSE) IN ACETONE SOLUTION 1/2 D FOR 10 DOSES, Doses [Promoter]: 2.5 UG IN ACETONE 3/WK BEGINNING 10 D POST LAST CARCINOGEN DOSE AND CONTINUING FOR 20 WK (STUDY DURATION: 23 WK), Route [Carcinogen]: DERMAL, Strain/Sex: CD-1/FEMALE) of the same molecule?
A: skin: tumors

Q: What about the outcome (Carcinogen: BENZO[J]FLUORANTHENE, 205-82-3, Doses [Carcinogen]: 0.3, 1, 2 UMOL (TOTAL DOSE) ADMINISTERED IN SUBDOSES 1/2 D, Doses [Carcinogen]: 0.3, 1, 2 UMOL (TOTAL DOSE) ADMINISTERED IN SUBDOSES 1/2 D, Doses [Promoter]: 2.5 UG IN 100 µL ACETONE 3/WK FOR 20 WK BEGINNING 10 D POST LAST CARCINOGEN DOSE (STUDY DURATION: 27 WK), Route [Carcinogen]: DERMAL, Strain/Sex: CD-1/FEMALE) of the same molecule?
A: skin: tumor

Q: And the outcome (Carcinogen: BENZO[K]FLUORANTHENE, 207-08-9, Doses [Carcinogen]: 4 UMOL (TOTAL DOSE) ADMINISTERED IN 10 SUBDOSES 1/2 D, Doses [Promoter]: 2.5 UG IN 0.1 ML ACETONE 3/WK FOR 30 WK BEGINNING 10 D POST CARCINOGEN TREATMENT (STUDY DURATION: 33 WK), Route [Carcinogen]: DERMAL, Strain/Sex: CRL:CD-1/FEMALE)?
A: skin: tumor

Q: What about the outcome (Carcinogen: CAPTAN, 133-06-2, Doses [Carcinogen]: 450 MG/KG BW IN 200 µL DMSO 3/WK FOR 3 WK, Doses [Promoter]: 0, 5 UG IN 100 µL ACETONE 3/WK FOR 51 WK BEGINNING 1 WK POST CARCINOGEN TREATMENT (STUDY DURATION: 54 WK), Route [Carcinogen]: DERMAL, Strain/Sex: SWISS/FEMALE) of the same molecule?
A: skin: tumor

Q: What about the outcome (Carcinogen: CARBARYL, 63-25-2, Doses [Carcinogen]: 100 MG/KG IN 100 µL ACETONE 3/WK FOR 3 WK, Doses [Promoter]: 0, 5 UG IN 100 µL ACETONE 3/WK FOR 51 WK BEGINNING 1 WK POST CARCINOGEN TREATMENT (STUDY DURATION: 52 WK), Route [Carcinogen]: DERMAL, Strain/Sex: SWISS/FEMALE) of the same molecule?
A: skin: tumor

Q: And the outcome (Carcinogen: CISPLATIN, 15663-27-1, Doses [Carcinogen]: 7.5 MG/KG IN 2.5% SALINE ONCE ON DAY 17 OF GESTATION, Doses [Promoter]: 0, 2 UG IN ACETONE 2/WK FOR 20 WK TO OFFSPRING OF MOTHERS ADMINISTERED CARCINOGEN (STUDY DURATION: 25 WK), Route [Carcinogen]: INTRAPERITONEAL, TRANSPLACENTAL, Strain/Sex: SENCAR/MALE, FEMALE)?
A: skin: papilloma

Q: And the outcome (Carcinogen: DIBENZO[A,L]PYRENE-8,9-DIHYDRODIOL, 130063-43-3, Doses [Carcinogen]: 100 NMOL IN 100 µL ACETONE ONCE, Doses [Promoter]: 3.24 NMOL/100 µL ACETONE 2/WK BEGINNING 2 WK POST CARCINOGEN DOSE AND CONTINUING FOR 24 WK (STUDY DURATION: 27 WK), Route [Carcinogen]: DERMAL, Strain/Sex: SENCAR/FEMALE)?
A: skin: tumor

Q: What about the outcome (Carcinogen: DIBENZO[A,L]PYRENE-11,12-DIHYDRODIOL, 88191-01-9, Doses [Carcinogen]: 1 NMOL IN 100 µL ACETONE, Doses [Promoter]: 2.16 NMOL IN 100 µL ACETONE 2/WK FOR 27 WK BEGINNING 1 WK POST CARCINOGEN DOSE (STUDY DURATION: 28 WK), Route [Carcinogen]: DERMAL, Strain/Sex: SENCAR/FEMALE) of the same molecule?
A: skin: tumor

Q: What about the outcome (Carcinogen: DIBENZO[A,L]PYRENE-11,12-DIHYDRODIOL, 88191-01-9, Doses [Carcinogen]: 4, 20, 100 NMOL IN 100 µL ACETONE ONCE, Doses [Carcinogen]: 4, 20, 100 NMOL IN 100 µL ACETONE ONCE, Doses [Promoter]: 3.24 NMOL/100 µL ACETONE 2/WK BEGINNING 2 WK POST CARCINOGEN DOSE AND CONTINUING FOR 24 WK (STUDY DURATION: 27 WK), Route [Carcinogen]: DERMAL, Strain/Sex: SENCAR/FEMALE) of the same molecule?
A: skin: tumor

Q: What about the outcome (Carcinogen: DIBENZO[A,L]PYRENE-11,12-DIHYDRODIOL, 155254-86-7, Doses [Carcinogen]: 1.33, 4, 12 NMOL IN 100 ML ACETONE ONCE, Doses [Carcinogen]: 1.33, 4, 12 NMOL IN 100 ML ACETONE ONCE, Doses [Promoter]: 1.62 NMOL IN 100 ML ACETONE 2/WK FOR 28 WK BEGINNING 1 WK POST CARCINOGEN DOSE (STUDY DURATION: 30 WK), Route [Carcinogen]: DERMAL, Strain/Sex: SENCAR/FEMALE) of the same molecule?
A: skin: tumor
